Like-named read-outs stand apart in the source and are kept apart here.
System: HCT116 cells
Assay: Nicotinic Acid Rescue Cytotoxicity Assay, first method: cytotoxicity to HCT116 cells in presence and absence of 10 μM nicotinic acid
Type: cell-based
Details: Homo sapiens, HCT-116, 72 h
Method: Additionally, Nicotinic Acid (NA) rescue of cytotoxicity of Nampt inhibitors was assessed by two distinct methods. In the first method, Nampt1 inhibitor cytotoxicity was evaluated in the presence and absence of exogenous nicotinic acid (NA) at a fixed concentration. […] Twenty four hours after cells were plated, the media was removed and replaced with media containing 10 μM nicotinic acid. Compounds were then immediately added. Cell viability was then assessed at 72 h.
Using the first of the two assays described above, the 90 compounds shown in Table 5, below, were tested for cytotoxicity towards Naprt1-proficient HCT116 cells, and for the ability of NA to block the observed cytotoxicity (or “rescue” the cells from the cytotoxic activity of the tested compound). The compounds listed are referred to by a unique rescue analysis example number (i.e., R1, R2 . . . R90) that is used as a reference number in Table 4, in which the results of the cytotoxicity and rescue assays are presented.

[1] = absence of nicotinic acid, read-out: HCT116 72 h cytotoxicity
[2] = presence of 10 μM nicotinic acid, read-out: HCT116 72 h cytotoxicity with 10 μM Nicotinic Acid

Structure (SMILES) | IC50 [1] [nM] | IC50 [2] [nM]
O=C(NCc1cccnc1)Nc1ccc(NS(=O)(=O)c2cc(C(F)(F)F)ccc2Cl)cc1 [Example R69, 2-chloro-N-(4-{[(pyridin-3-ylmethyl)carbamoyl]amino}phenyl)-5-(trifluoromethyl)benzenesulfonamide] | 1.3 | > 1000
Cc1c(COc2ccc(C(=O)NCc3cccnc3)cc2)cccc1C(F)(F)F [Example R24, 4-{[2-Methyl-3-(trifluoromethyl)benzyl]oxy}-N-(pyridin-3-ylmethyl)benzamide] | 12000 | 45000
N#C/N=C(\NCCCCCCOc1ccc(Cl)cc1)Nc1ccc(Br)nc1 [Example R36, 1-(6-Bromopyridin-3-yl)-2-[6-(4-chlorophenoxy)hexyl]-3-cyanoguanidine] | 6000 | > 10000
O=C(NCc1cccnc1)c1ccc(NC(=O)c2ccccc2)cc1 [Example R6, 4-[(Phenylcarbonyl)amino]-N-(pyridin-3-ylmethyl)benzamide] | 1690 | > 10000
O=C(NCc1cccnc1)Nc1ccc(NS(=O)(=O)c2ccccc2Br)cc1 [Example R33, 2-Bromo-N-(4-{[(pyridin-3-ylmethyl)carbamoyl]amino}phenyl)benzene-sulfonamide] | 4.6 | > 50000
O=C(NCc1cccnc1)c1ccc(NCc2ccccc2-c2ccccc2)cc1 [Example R27, 4-[(Biphenyl-2-ylmethyl)amino]-N-(pyridin-3-ylmethyl)benzamide] | 87.1 | 37000
O=C(NCc1cccnc1)Nc1ccc(NS(=O)(=O)c2cc(C(F)(F)F)ccc2C(F)(F)F)cc1 [Example R67] | 0.3 | > 1000
O=C(NCc1cccnc1)Nc1ccc(COc2ccccc2-c2cccnc2)cc1 [Example R83, 1-(Pyridin-3-ylmethyl)-3-(4-{[2-(pyridin-3-yl)phenoxy]methyl}phenyl)urea] | 1.5 | > 5000
N#C/N=C(/NCc1ccc(COc2ccccc2-c2ccccc2)cc1)Nc1ccncc1 [Example R70, 1-{4-[(biphenyl-2-yloxy)methyl]benzyl}-2-cyano-3-pyridin-4-ylguanidine] | 1.1 | > 5000
C#CCN(Cc1cc2c(=O)n(C)c(CN3CCN(C)CC3)nc2cc1Cl)c1ccc(C(=O)NCc2ccccn2)cc1 [Example R4, 4-[({7-Chloro-3-methyl-2-[(4-methylpiperazin-1-yl)methyl]-4-oxo-3,4-dihydroquinazolin-6-yl}methyl)(prop-2-yn-1-yl)amino]-N-(pyridin-2-ylmethyl)benzamide] | 276 | > 10000
O=C(NCc1cccnc1)Nc1ccc(COc2ccccc2-c2ccsc2)cc1 [Example R80, 1-(Pyridin-3-ylmethyl)-3-(4-{[2-(thiophen-3-yl)phenoxy]methyl}phenyl)urea] | 0.9 | > 5000
N#C/N=C(/NCCCCCCOc1ccc(Cl)cc1)NCc1cccnc1 [Example R40, 1-[6-(4-Chlorophenoxy)hexyl]-2-cyano-3-(pyridin-3-ylmethyl)guanidine] | 1090 | > 10000
O=C(NCc1cccnc1)Nc1ccc(CNc2ccccc2-c2ccccc2)cc1 [Example R86, 1-{4-[(Biphenyl-2-ylamino)methyl]phenyl}-3-(pyridin-3-ylmethyl)urea] | 0.4 | 4000
O=C(NCc1cccnc1)c1ccc(NC(=S)Nc2ccccc2Br)cc1 [Example R13, 4-{[(2-Bromophenyl)carbamothioyl]amino}-N-(pyridin-3-ylmethyl)benzamide] | 1610 | > 50000
O=C(Nc1ccc(C(=O)NCc2cccnc2)cc1)Nc1cc(C(F)(F)F)cc(C(F)(F)F)c1 [Example R14, 4-({[3,5-Bis(trifluoromethyl)phenyl]carbamoyl}amino)-N-(pyridin-3-ylmethyl)benzamide] | 7390 | 21500
O=C(NCc1cccnc1)c1ccc(OCc2ccccc2-c2cnc3ccccc3c2)cc1 [Example R48, N-(Pyridin-3-ylmethyl)-4-{[2-(quinolin-3-yl)benzyl]oxy}benzamide] | 38.8 | > 10000
O=C(CNc1ccccc1Oc1ccccc1)Nc1ccc(C(=O)NCc2cccnc2)cc1 [Example R19, 4-{[N-(2-Phenoxyphenyl)glycyl]amino}-N-(pyridin-3-ylmethyl)benzamide] | 586 | > 50000
O=C(NCc1cccnc1)c1ccc(NNc2ccc(C(=O)NCc3cccnc3)cc2)cc1 [Example R7, 4,4′-Hydrazine-1,2-diylbis[N-(pyridin-3-ylmethyl)benzamide]] | 8.8 | 22000

Structure (SMILES) | IC50 [1] [nM] | IC50 [2] [nM]
O=C(NCc1cccnc1)Nc1ccc(NS(=O)(=O)c2ccccc2-c2ccccc2)nc1 [Example R90, N-(5-{[(Pyridin-3-ylmethyl)carbamoyl]amino}pyridin-2-yl)biphenyl-2-sulfonamide] | 28.7 | > 5000
O=C(NCc1cccnc1)Nc1ccc(NS(=O)(=O)c2ccc([N+](=O)[O-])c(C(F)(F)F)c2)cc1 [Example R50, 4-Nitro-N-(4-{[(pyridin-3-ylmethyl)carbamoyl]amino}phenyl)-3-(trifluoromethyl)benzenesulfonamide] | 6.7 | > 10000
O=C(Nc1ccc(C(=O)NCc2cccnc2)cc1)Nc1ccc(Cl)c(Cl)c1 [Example R12, 4-{[(3,4-Dichlorophenyl)carbamoyl]amino}-N-(pyridin-3-ylmethyl)benzamide] | 9640 | 24800
C#CCN(Cc1cc2c(=O)n(C)c(CN3CCN(C)CC3)nc2cc1Cl)c1ccc(C(=O)NCc2cccnc2)cc1 [Example R1] | 0.7 | > 10000
O=C(NCc1cccnc1)c1ccc(NC(=S)Nc2cccc(OCc3ccccc3)c2)cc1 [Example R15, 4-({[3-(Benzyloxy)phenyl]carbamothioyl}amino)-N-(pyridin-3-ylmethyl)benzamide] | 4690 | > 50000
C#CCN(Cc1cc2c(=O)n(C)c(CN3CCN(CCN)CC3)nc2cc1Cl)c1ccc(C(=O)NCc2cccnc2)cc1 [Example R2, 4-{[(2-{[4-(2-Aminoethyl)piperazin-1-yl]methyl}-7-chloro-3-methyl-4-oxo-3,4-dihydroquinazolin-6-yl)methyl](prop-2-yn-1-yl)amino}-N-(pyridin-3-ylmethyl)benzamide] | 18.3 | > 50000
O=C(NCc1cccnc1)Nc1ccc(NS(=O)(=O)c2ccc(Cl)cc2Cl)cc1 [Example R75, 2,4-dichloro-N-(4-{[(pyridin-3-ylmethyl)carbamoyl]amino}phenyl)benzene-sulfonamide] | 30.3 | > 5000
CC(C)=CCN(Cc1cc2c(=O)n(C)c(C)nc2cc1Cl)c1ccc(C(=O)NCc2cccnc2)cc1 [Example R51, 4-{[(7-Chloro-2,3-dimethyl-4-oxo-3,4-dihydroquinazolin-6-yl)methyl](3-methylbut-2-en-1-yl)amino}-N-(pyridin-3-ylmethyl)benzamide] | 9.5 | > 10000
CC(C)c1cccc(-c2ccccc2CNc2ccc(C(=O)NCc3cccnc3)cc2)c1 [Example R25, 4-({[3′-(Propan-2-yl)biphenyl-2-yl]methyl}amino)-N-(pyridin-3-ylmethyl)benzamide] | 8330 | 37000
O=C(NCc1cccnc1)Nc1ccc(NS(=O)(=O)c2ccccc2)cc1 [Example R32, N-(4-{[(Pyridin-3-ylmethyl)carbamoyl]amino}phenyl)benzene-sulfonamide] | 194 | > 50000
CCOc1ccccc1NCC(=O)Nc1ccc(C(=O)NCc2cccnc2)cc1 [Example R21, 4-{[N-(2-Ethoxyphenyl)glycyl]amino}-N-(pyridin-3-ylmethyl)benzamide] | 435 | > 50000
O=C(NCc1cccnc1)Nc1ccc(NCc2ccccc2Cl)cc1 [Example R31, 1-{4-[(2-Chlorobenzyl)amino]phenyl}-3-(pyridin-3-ylmethyl)urea] | 1270 | > 50000
O=C(NCc1cccnc1)Nc1ccc(NS(=O)(=O)c2ccccc2-c2ccccc2)cc1 [Example R49, N-(4-{[(Pyridin-3-ylmethyl)carbamoyl]amino}phenyl)biphenyl-2-sulfonamide] | 4.9 | > 10000
Cc1cnccc1N/C(=N/C#N)NCCCCCCOc1ccc(Cl)cc1 [Example R38, 1-[6-(4-Chlorophenoxy)hexyl]-2-cyano-3-(3-methylpyridin-4-yl)guanidine] | 1.4 | > 10000
O=C(NCCc1cccnc1)c1ccc(NCc2ccccc2Br)cc1 [Example R34, 4-[(2-Bromobenzyl)amino]-N-[2-(pyridin-3-yl)ethyl]benzamide] | 1160 | > 50000
CC(C)=CCN(Cc1ccccc1Cl)c1ccc(C(=O)NCc2cccnc2)cc1 [Example R44, 4-[(2-Chlorobenzyl)(3-methylbut-2-en-1-yl)amino]-N-(pyridin-3-ylmethyl)benzamide] | 16.3 | > 10000
O=C(NCc1cccnc1)Nc1ccc(NS(=O)(=O)c2cc(Cl)ccc2Cl)cc1 [Example R74, 2,5-dichloro-N-(4-{[(pyridin-3-ylmethyl)carbamoyl]amino}phenyl)benzene-sulfonamide] | 2.3 | > 5000
C#CCN(Cc1ccccc1C(F)(F)F)c1ccc(C(=O)NCc2cccnc2)cc1 [Example R10, 4-{Prop-2-yn-1-yl[2-(trifluoromethyl)benzyl]amino}-N-(pyridin-3-ylmethyl)benzamide] | 1110 | > 5000
